EC50 data for 26 compounds are collected here from patent publication US20150291598A1 (NOVARTIS AG, priority 2012, published 2015).

The subject of this assay is P. falciparum (NF54 or 3D7 strain). Description: Assay for P. falciparum proliferation in infected human blood cells (SYBR Green). It is filed as cell-based, Plasmodium falciparum. The note with it: Plasmodium falciparum, Erythrocyte, 72 h, NF54 or 3D7 infected human erythrocytes, 72 hours; read-out: EC50 (nM), inhibitory efficacy in delaying P. falciparum proliferation in infected human blood cells. The method in brief: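 NF54 or 3D7 parasites in O+ human erythrocytes at 2.5% hematocrit and 0.3% parasitemia final, exposed to compounds 72 h at 37 °C under 93% N2/4% CO2/3% O2.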
On to `COC(=O)Nc1ccc(-c2cnc3cnc(C(=O)N(C)c4ccc(C)cn4)cn23)cn1` [Compound 415, methyl N-(5-{6-[methyl(5-methylpyridin-2-yl)carbamoyl]imidazo[1,2-a]pyrazin-3-yl}pyridin-2-yl)carbamate], for which the EC50 is over 10000 nM.
The figure for `CN(C(=O)c1cn2c(-c3ccc(C(F)(F)F)cc3)cnc2cn1)c1cccc2nncn12` [Compound 416, N-methyl-N-{[1,2,4]triazolo[4,3-a]pyridin-5-yl}-3-[4-(trifluoromethyl)phenyl]imidazo[1,2-a]pyrazine-6-carboxamide] is over 10000 nM.
For the compound `CN(C(=O)c1ccc(C(C)(C)C)cc1)c1cn2c(-c3ccc(C(F)(F)F)cc3)cnc2cn1` [Compound 417, 4-tert-butyl-N-methyl-N-{3-[4-(trifluoromethyl)phenyl]imidazo[1,2-a]pyrazin-6-yl}benzamide], the EC50 was over 10000 nM.
The figure for `CN(C)c1cccc(-c2cnc3cnc(C(=O)N(C)c4ccc(Cl)nc4)cn23)c1` [Compound 418, N-(6-chloropyridin-3-yl)-3-[3-(dimethylamino)phenyl]-N-methylimidazo[1,2-a]pyrazine-6-carboxamide] is over 10000 nM; for `CN(C(=O)c1cn2c(-c3ccc(NS(C)(=O)=O)cc3)cnc2cn1)c1ccc(Cl)nc1` [Compound 419, N-(6-chloropyridin-3-yl)-3-(4-methanesulfonamidophenyl)-N-methylimidazo[1,2-a]pyrazine-6-carboxamide] it is over 8270 nM.
The figure for `Cc1ncccc1N(C)C(=O)c1cn2c(-c3ccc(C(F)(F)F)cc3)cnc2cn1` [Compound 420, N-methyl-N-(2-methylpyridin-3-yl)-3-[4-(trifluoromethyl)phenyl]imidazo[1,2-a]pyrazine-6-carboxamide] is over 10000 nM; for `CN(C(=O)c1cn2c(-c3ccc(F)cc3)cnc2cn1)c1ccc(Cl)nc1` [Compound 422, N-(6-chloropyridin-3-yl)-3-(4-fluorophenyl)-N-methylimidazo[1,2-a]pyrazine-6-carboxamide] it is over 10000 nM; for `CN(C(=O)c1cn2c(-c3ccc(C(F)(F)F)cc3)cnc2cn1)c1nc(-c2ccccc2)cs1` [Compound 423, N-methyl-N-(4-phenyl-1,3-thiazol-2-yl)-3-[4-(trifluoromethyl)phenyl]imidazo[1,2-a]pyrazine-6-carboxamide] it is over 9660 nM.
The figure for `Cc1n[nH]c2ccc(-c3cnc4cnc(C(=O)N(C)c5ccc(C#N)cc5)cn34)cc12` [Compound 424] is 291 nM.
Regarding `CC(=O)c1ccc(N(C)C(=O)c2cn3c(-c4ccc(C(F)(F)F)cc4)cnc3cn2)cc1` [Compound 425, N-(4-acetylphenyl)-N-methyl-3-[4-(trifluoromethyl)phenyl]imidazo[1,2-a]pyrazine-6-carboxamide], the EC50 amounted to 1020 nM.
The figure for `O=C1CCCCN1Cc1cn2c(-c3ccc(C(F)(F)F)cc3)cnc2cn1` [Compound 426, 1-({3-[4-(trifluoromethyl)phenyl]imidazo[1,2-a]pyrazin-6-yl}methyl)piperidin-2-one] is 1950 nM; for `CN(C)C(=O)c1ccc(-c2cnc3cnc(C(=O)N(C)c4ccc(C#N)cc4)cn23)cc1` [Compound 427, N-(4-cyanophenyl)-3-[4-(dimethylcarbamoyl)phenyl]-N-methylimidazo[1,2-a]pyrazine-6-carboxamide] it is over 9800 nM.
As for `CN(C(=O)c1cn2c(-c3ccc4[nH]ccc4c3)cnc2cn1)c1ccc(C#N)cc1` [Compound 428, N-(4-cyanophenyl)-3-(1H-indol-5-yl)-N-methylimidazo[1,2-a]pyrazine-6-carboxamide], the EC50 is 276 nM.
The figure for `CN(C(=O)c1cn2c(-c3ccc(OC(F)F)cc3)cnc2cn1)c1ccc(Cl)nc1` [Compound 429, N-(6-chloropyridin-3-yl)-3-[4-(difluoromethoxy)phenyl]-N-methylimidazo[1,2-a]pyrazine-6-carboxamide] is 313 nM; for `COc1cc(F)ccc1N(C)C(=O)c1cn2c(-c3ccc(C(F)(F)F)cc3)cnc2cn1` [Compound 430, N-(4-fluoro-2-methoxyphenyl)-N-methyl-3-[4(trifluoromethyl)phenyl]imidazo[1,2-a]pyrazine] it is 17 nM.
The figure for `COc1ccc(-c2cnc3cnc(C(=O)N(C)c4ccc(F)c(F)c4)cn23)cc1` [Compound 431, N-(3,4-difluorophenyl)-3-(4-methoxyphenyl)-N-methylimidazo[1,2-a]pyrazine-6-carboxamide] is 82 nM; for `Cc1ccc(-c2cnc3cnc(C(=O)N(C)c4ccc(Cl)cc4)cn23)cc1` [Compound 432, N-(4-chlorophenyl)-N-methyl-3-(4-methylphenyl)imidazo[1,2-a]pyrazine-6-carboxamide] it is 79 nM; for `CN(C(=O)c1cn2c(-c3ccc(OC(F)F)cc3)cnc2cn1)c1ccc(F)cc1` [Compound 433, 3-[4-(difluoromethoxy)phenyl]-N-(4-fluorophenyl)-N-methylimidazo[1,2-a]pyrazine-6-carboxamide] it is 31 nM.
With `CN(C(=O)c1cn2c(-c3ccc(C(F)(F)F)cc3)cnc2cn1)c1ncc(Br)cn1` [Compound 434, N-(5-bromopyrimidin-2-yl)-N-methyl-3-[4-(trifluoromethyl)phenyl]imidazo[1,2-a]pyrazine-6-carboxamide] the figure was 7090 nM.
Regarding `CN(C(=O)c1cn2c(-c3ccc(C(F)(F)F)cc3)cnc2cn1)c1ccc(Cl)cn1` [Compound 435, N-(5-chloropyridin-2-yl)-N-methyl-3-[4-(trifluoromethyl)phenyl]imidazo[1,2-a]pyrazine-6-carboxamide], the EC50 was determined as 214 nM.
The figure for `CC(C)Oc1ccc(N(C)C(=O)c2cn3c(-c4ccc(C(F)(F)F)cc4)cnc3cn2)cc1` [Compound 436, N-methyl-N-[4-(propan-2-yloxy)phenyl]-3-[4-(trifluoromethyl)phenyl]imidazo[1,2-a]pyrazine-6-carboxamide] is 9300 nM.
The figure for `CN(C)c1ccc(-c2cnc3cnc(CN(C)c4ccc(C#N)cc4)cn23)cc1` [Compound 437, 4-[({3-[4-(dimethylamino)phenyl]imidazo[1,2-a]pyrazin-6-yl}methyl)(methyl)amino]benzonitrile] is 176 nM; for `CN(C)c1cccc(-c2cnc3cnc(C(=O)N(C)c4ccc(C#N)cc4)cn23)c1` [Compound 438, N-(4-cyanophenyl)-3-[3-(dimethylamino)phenyl]-N-methylimidazo[1,2-a]pyrazine-6-carboxamide] it is over 10000 nM.
Consider `CN(C(=O)c1cn2c(-c3ccc(Cl)nc3)cnc2cn1)c1ccc(C#N)cc1` [Compound 439, 3-(6-chloropyridin-3-yl)-N-(4-cyanophenyl)-N-methylimidazo[1,2-a]pyrazine-6-carboxamide], for which the EC50 is 2760 nM.
With `COc1cccc(N(C)C(=O)c2cn3c(-c4ccc(C(F)(F)F)cc4)cnc3cn2)c1` [Compound 440, N-(3-methoxyphenyl)-N-methyl-3-[4-(trifluoromethyl)phenyl]imidazo[1,2-a]pyrazine-6-carboxamide] the figure was 140 nM; with `COc1ccc(-c2cnc3cnc(C(=O)N(C)c4ccc(C#N)cc4)cn23)c(C)c1` [Compound 441, N-(4-cyanophenyl)-3-(4-methoxy-2-methylphenyl)-N-methylimidazo[1,2-a]pyrazine-6-carboxamide], 6500 nM.
